Experimental data: patent US9529005B2, “Modulating bacterial MAM polypeptides in pathogenic disease” (priority 2011, dated 2016)
Where two headings read alike, the source gives them in different places.

Tests used:
Experiment in all cases: Antimicrobial susceptibility testing (MIC), BD Phoenix Automated Microbiology System; as to interpretation of the result: key: R, resistant; I, intermediate; S, susceptible; R*: *As a rule, when ESBL is detected, an interpretation of susceptible or intermediate for penicillins, cephalosporins and aztreonam is reported as resistant
Type in all cases: cell-based
Escherichia coli = conditions: for MIC: Escherichia coli
Source text: (§1) The inventors performed antimicrobial susceptibility testing (AST) by determining the minimal inhibiting concentration (MIC) of a panel of antimicrobials on all twenty bacterial isolates using the BD Phoenix Automated Microbiology System (Table 3). Antimicrobial panels included several drugs from each of the four most commonly used classes of antimicrobials, aminoglycosides, β-lactams, carbapenems and fluoroquinolones. The panels also included antimicrobials from other classes, such as trimethoprim/sulfamethoxazole, but resistance to these was not considered in the classification of isolates as multidrug-resistant.

Pseudomonas aeruginosa = conditions: for MIC: Pseudomonas aeruginosa
Source text: as §1

Acinetobacter baumannii = conditions: for MIC: Acinetobacter baumannii
Source text: as §1

Klebsiella ssp. = conditions: for MIC: Klebsiella
Source text: as §1

[1] = read-out: minimal inhibiting concentration, Escherichia coli isolate 1
[2] = read-out: minimal inhibiting concentration, Escherichia coli isolate 2
[3] = read-out: minimal inhibiting concentration, Escherichia coli isolate 3
[4] = read-out: minimal inhibiting concentration, Escherichia coli isolate 4
[5] = read-out: minimal inhibiting concentration, Escherichia coli isolate 5
[6] = Pseudomonas aeruginosa isolate 1
[7] = Pseudomonas aeruginosa isolate 2
[8] = Pseudomonas aeruginosa isolate 3
[9] = Pseudomonas aeruginosa isolate 4
[10] = Pseudomonas aeruginosa isolate 5
[11] = read-out: minimal inhibiting concentration, Pseudomonas aeruginosa isolate 1
[12] = read-out: minimal inhibiting concentration, Pseudomonas aeruginosa isolate 2
[13] = read-out: minimal inhibiting concentration, Pseudomonas aeruginosa isolate 3
[14] = read-out: minimal inhibiting concentration, Pseudomonas aeruginosa isolate 4
[15] = read-out: minimal inhibiting concentration, Pseudomonas aeruginosa isolate 5
[16] = Acinetobacter baumannii isolate 1
[17] = Acinetobacter baumannii isolate 2
[18] = Acinetobacter baumannii isolate 3
[19] = Acinetobacter baumannii isolate 4
[20] = Acinetobacter baumannii isolate 5
[21] = read-out: minimal inhibiting concentration, Acinetobacter baumannii isolate 1
[22] = read-out: minimal inhibiting concentration, Acinetobacter baumannii isolate 2
[23] = read-out: minimal inhibiting concentration, Acinetobacter baumannii isolate 3
[24] = read-out: minimal inhibiting concentration, Acinetobacter baumannii isolate 4
[25] = read-out: minimal inhibiting concentration, Acinetobacter baumannii isolate 5
[26] = read-out: minimal inhibiting concentration, Klebsiella ssp. isolate 1
[27] = read-out: minimal inhibiting concentration, Klebsiella ssp. isolate 2
[28] = read-out: minimal inhibiting concentration, Klebsiella ssp. isolate 3
[29] = read-out: minimal inhibiting concentration, Klebsiella ssp. isolate 4
[30] = read-out: minimal inhibiting concentration, Klebsiella ssp. isolate 5

NC[C@H]1O[C@H](O[C@H]2[C@H](O)[C@@H](O[C@H]3O[C@H](CO)[C@@H](O)[C@H](N)[C@H]3O)[C@H](N)C[C@@H]2N)[C@H](N)C[C@@H]1O [Tob., Tobramycin]
8 µg/mL: MIC (Acinetobacter baumannii; [21]) | MIC (Klebsiella ssp.; [26]) | MIC (Klebsiella ssp.; [28]) | MIC (Klebsiella ssp.; [29])
S: interpretation of the result (Escherichia coli; Escherichia coli isolate 4) | interpretation of the result (Pseudomonas aeruginosa; [6]) | interpretation of the result (Pseudomonas aeruginosa; [8]) | interpretation of the result (Acinetobacter baumannii; [20])
> 8 µg/mL: MIC (Escherichia coli; [1]) | MIC (Escherichia coli; [2]) | MIC (Escherichia coli; [3]) | MIC (Escherichia coli; [5]) | MIC (Pseudomonas aeruginosa; [12]) | MIC (Pseudomonas aeruginosa; [14]) | MIC (Pseudomonas aeruginosa; [15]) | MIC (Acinetobacter baumannii; [22]) | MIC (Acinetobacter baumannii; [23]) | MIC (Acinetobacter baumannii; [24]) | MIC (Klebsiella ssp.; [27]) | MIC (Klebsiella ssp.; [30])
R: interpretation of the result (Escherichia coli; Escherichia coli isolate 1) | interpretation of the result (Escherichia coli; Escherichia coli isolate 2) | interpretation of the result (Escherichia coli; Escherichia coli isolate 3) | interpretation of the result (Escherichia coli; Escherichia coli isolate 5) | interpretation of the result (Pseudomonas aeruginosa; [7]) | interpretation of the result (Pseudomonas aeruginosa; [9]) | interpretation of the result (Pseudomonas aeruginosa; [10]) | interpretation of the result (Acinetobacter baumannii; [17]) | interpretation of the result (Acinetobacter baumannii; [18]) | interpretation of the result (Acinetobacter baumannii; [19]) | interpretation of the result (Klebsiella ssp.; Klebsiella ssp. isolate 2) | interpretation of the result (Klebsiella ssp.; Klebsiella ssp. isolate 5)
≤ 2 µg/mL: MIC (Escherichia coli; [4]) | MIC (Pseudomonas aeruginosa; [11]) | MIC (Pseudomonas aeruginosa; [13])
I: interpretation of the result (Acinetobacter baumannii; [16]) | interpretation of the result (Klebsiella ssp.; Klebsiella ssp. isolate 1) | interpretation of the result (Klebsiella ssp.; Klebsiella ssp. isolate 3) | interpretation of the result (Klebsiella ssp.; Klebsiella ssp. isolate 4)
4 µg/mL: MIC (Acinetobacter baumannii; [25])

C[C@@H](O)[C@H]1C(=O)N2C(C(=O)O)=C(S[C@@H]3CN[C@H](C(=O)N(C)C)C3)[C@H](C)[C@H]12 [Mero., Meropenem]
2 µg/mL: MIC (Acinetobacter baumannii; [21])
R: interpretation of the result (Pseudomonas aeruginosa; [7]) | interpretation of the result (Pseudomonas aeruginosa; [8]) | interpretation of the result (Pseudomonas aeruginosa; [9]) | interpretation of the result (Acinetobacter baumannii; [17]) | interpretation of the result (Acinetobacter baumannii; [18]) | interpretation of the result (Acinetobacter baumannii; [20])
4 µg/mL: MIC (Pseudomonas aeruginosa; [11]) | MIC (Pseudomonas aeruginosa; [15])
> 8 µg/mL: MIC (Pseudomonas aeruginosa; [12]) | MIC (Pseudomonas aeruginosa; [13]) | MIC (Pseudomonas aeruginosa; [14]) | MIC (Acinetobacter baumannii; [22]) | MIC (Acinetobacter baumannii; [23]) | MIC (Acinetobacter baumannii; [25])
susceptible: susceptibility of isolates (Escherichia coli; all E. coli isolates) | susceptibility of isolates (Klebsiella ssp.; all Klebsiella ssp. isolates)
≤ 1 µg/mL: MIC (Escherichia coli; [1]) | MIC (Escherichia coli; [2]) | MIC (Escherichia coli; [3]) | MIC (Escherichia coli; [4]) | MIC (Escherichia coli; [5]) | MIC (Acinetobacter baumannii; [24]) | MIC (Klebsiella ssp.; [26]) | MIC (Klebsiella ssp.; [27]) | MIC (Klebsiella ssp.; [28]) | MIC (Klebsiella ssp.; [29]) | MIC (Klebsiella ssp.; [30])
S: interpretation of the result (Escherichia coli; Escherichia coli isolate 1) | interpretation of the result (Escherichia coli; Escherichia coli isolate 2) | interpretation of the result (Escherichia coli; Escherichia coli isolate 3) | interpretation of the result (Escherichia coli; Escherichia coli isolate 4) | interpretation of the result (Escherichia coli; Escherichia coli isolate 5) | interpretation of the result (Pseudomonas aeruginosa; [6]) | interpretation of the result (Pseudomonas aeruginosa; [10]) | interpretation of the result (Acinetobacter baumannii; [16]) | interpretation of the result (Acinetobacter baumannii; [19]) | interpretation of the result (Klebsiella ssp.; Klebsiella ssp. isolate 1) | interpretation of the result (Klebsiella ssp.; Klebsiella ssp. isolate 2) | interpretation of the result (Klebsiella ssp.; Klebsiella ssp. isolate 3) | interpretation of the result (Klebsiella ssp.; Klebsiella ssp. isolate 4) | interpretation of the result (Klebsiella ssp.; Klebsiella ssp. isolate 5)

Trimethoprim-Sulfamethoxazole [TmSm.]
2/38: minimal inhibiting concentration (Escherichia coli; Escherichia coli isolate 1) | minimal inhibiting concentration (Escherichia coli; Escherichia coli isolate 2) | minimal inhibiting concentration (Escherichia coli; Escherichia coli isolate 3) | minimal inhibiting concentration (Escherichia coli; Escherichia coli isolate 4) | minimal inhibiting concentration (Escherichia coli; Escherichia coli isolate 5) | minimal inhibiting concentration (Pseudomonas aeruginosa; [6]) | minimal inhibiting concentration (Pseudomonas aeruginosa; [7]) | minimal inhibiting concentration (Pseudomonas aeruginosa; [8]) | minimal inhibiting concentration (Pseudomonas aeruginosa; [9]) | minimal inhibiting concentration (Pseudomonas aeruginosa; [10]) | minimal inhibiting concentration (Acinetobacter baumannii; [16]) | minimal inhibiting concentration (Acinetobacter baumannii; [17]) | minimal inhibiting concentration (Acinetobacter baumannii; [18]) | minimal inhibiting concentration (Acinetobacter baumannii; [19]) | minimal inhibiting concentration (Acinetobacter baumannii; [20]) | minimal inhibiting concentration (Klebsiella ssp.; Klebsiella ssp. isolate 1) | minimal inhibiting concentration (Klebsiella ssp.; Klebsiella ssp. isolate 5)
R: interpretation of the result (Escherichia coli; Escherichia coli isolate 1) | interpretation of the result (Escherichia coli; Escherichia coli isolate 2) | interpretation of the result (Escherichia coli; Escherichia coli isolate 3) | interpretation of the result (Escherichia coli; Escherichia coli isolate 4) | interpretation of the result (Escherichia coli; Escherichia coli isolate 5) | interpretation of the result (Pseudomonas aeruginosa; [6]) | interpretation of the result (Pseudomonas aeruginosa; [7]) | interpretation of the result (Pseudomonas aeruginosa; [8]) | interpretation of the result (Pseudomonas aeruginosa; [9]) | interpretation of the result (Pseudomonas aeruginosa; [10]) | interpretation of the result (Acinetobacter baumannii; [16]) | interpretation of the result (Acinetobacter baumannii; [17]) | interpretation of the result (Acinetobacter baumannii; [18]) | interpretation of the result (Acinetobacter baumannii; [19]) | interpretation of the result (Acinetobacter baumannii; [20]) | interpretation of the result (Klebsiella ssp.; Klebsiella ssp. isolate 1) | interpretation of the result (Klebsiella ssp.; Klebsiella ssp. isolate 5)
S: interpretation of the result (Klebsiella ssp.; Klebsiella ssp. isolate 2) | interpretation of the result (Klebsiella ssp.; Klebsiella ssp. isolate 3) | interpretation of the result (Klebsiella ssp.; Klebsiella ssp. isolate 4)
